Measured values published in patent publication US9782400B2, “Oncogenic ROS1 and ALK kinase inhibitor” (Macau University of Science and Technology, priority 2015, dated 2017).

Columns and labels:
BEAS-2B cells [1] = experiment: MTT assay, normal lung epithelial cells (Example 1A); format: cell-based; conditions: Homo sapiens, 72 h treatment
Experimental: (§1) To show the highly cytotoxic and selective properties of the present compound of Formula (Ic), HCC78 NSCLC cells and normal lung epithelial cells (BEAS-2B) were treated with the compound of Formula (Ic) and respective effects were observed. HCC78 NSCLC cells are non-small cell lung cancer cells with a ROS1 gene fusion. HCC78 cells were obtained from the American Type Culture Collection (ATCC) and cultured in environment of 5% CO2 at 37° C. in RPMI-1640 medium supplemented with 10% fetal bovine serum (FBS), 100 units/mL penicillin, and 100 μg/mL streptomycin. The compound of Formula (Ic) was dissolved in DMSO. Using a MTT assay, 3000 HCC78 or BEAS-2B cells were seeded on 96-well plates, cultured overnight for cell adhesion, and treated with DMSO or various concentrations of the compound of Formula (Ic) for 72 h. Three independent tests were performed. 10 μL of MTT (5 mg/mL; Sigma) were added to each well, and incubation continued for another 4 h. Then the dark blue crystals were dissolved in 100 μL of the resolved solution (10% SDS and 0.1 mM HCL). The absorbance was measured at 570 nm by a microplate reader (Tecan, Morrisville, N.C., USA).
(§2) The cell viability was calculated relative to untreated controls, with results based on at least three independent experiments. […] The compound of Formula (Ic) exerts a 3.75-fold cytotoxicity towards cancer cells than normal healthy cells.

BEAS-2B cells [2] = experiment: MTT assay, human bronchial epithelial cells (Example 2A); format: cell-based; conditions: 72 h treatment
Experimental: (§3) H2228 (which express EML4-ALK fusion kinases, namely variant 3) and BEAS-2B cells were obtained from the American Type Culture Collection and cultured in environment of 5% CO2 at 37° C. in RPMI-1640 medium supplemented with 10% fetal bovine serum (FBS), 100 units/mL penicillin, and 100 μg/mL streptomycin.
(§4) The cytotoxicity effect of the compound of Formula (Ic) on H2228 NSCLC cells (harboring ALK fusion) and human bronchial epithelial (BEAS-2B) have been analyzed. H2228 cells were cultured in 96-well plates at a density of 3×10^3 cells/well, and were cultured overnight for cell adhesion. Then the cells were treated with DMSO or various concentrations of the compound of Formula (Ic) for 72 h. To each well 10 μL MTT (5 mg/mL) (Sigma) was added and the cells were incubated for another 4 h at 37° C., followed by adding 100 μL acidic isopropanol (10% SDS, and 0.01 mol/L HCl). Finally, the optical density (OD) of each well was measured at 570 nm by the Microplate Reader (Epoch, Winooski, USA). The cell viability was calculated relative to untreated controls, with results based on at least three independent experiments.

HCC78 NSCLC cells = experiment: MTT assay, cell viability of HCC78 cells; format: cell-based
Experimental: as §1, §2

ALK fusion kinase = experiment: Western blot of ALK phosphorylation and downstream signaling in H2228 cells; format: cell-based; conditions: H2228 cells, 1.25, 2.5, 5 μM
Experimental: Equal amounts of the protein samples (20-40 μg per lane) were separated on a 10% SDS-PAGE gel, then proteins were transferred onto Nitrocellulose (NC) membrane at 300 mA for 2.5 hours at 4° C., the membranes was probed with primary antibodies overnight at 4° C. which was then exposed to 5% non-fat dry milk in TBST for 1 h at room temperature with constant agitation and, then, rabbit or mouse fluorescent antibodies (1:1000) were added to the membrane at room temperature for 1 h. Visualization was performed using a LI-COR Odessy scanner (Belfast, Me., USA). All primary antibodies were diluted 1:1000, while their recommended secondary antibodies were diluted 1:10000.

HCC78 cells = experiment: Apoptosis assay (Annexin-V FITC/PI, fluorescence images and flow cytometry) in HCC78 cells; format: cell-based; conditions: 72 h
Experimental: HCC78 cells (1.0×10^5 cells/well) were allowed to attach to a 6-well plate for 24 h, and the cells were treated with the various concentrations of the compound of Formula (Ic) for additional 72 h. At the end of incubation, the cells were harvested by trypsinization and washed twice with ice-cold PBS. After centrifugation and removal of the supernatants, cell pellets were resuspended in 100 μL 1× Annexin-binding buffer, 2 μL Annexin-V FITC and 2 μL PI (100 μg/ml) were added and incubated in the dark at room temperature for 15 min before further addition of 400 μL of 1× Annexin-binding buffer. The stained cells were analyzed quantitatively using a flow cytometer (BD Biosciences, San Jose, Calif., USA). […] Such cell morphology indicates apoptosis.

ROS1 fusion kinase = experiment: Western blot of ROS1 phosphorylation and downstream signaling in HCC78 cells; format: cell-based; conditions: HCC78 cells, 1.25, 2.5, 5 μM, 72 h
Experimental: The cells were planted on 6-well plate, allowed to attach for 24 h, and treated with the various concentrations of the compound of Formula (Ic) for 72 h. Cells were washed twice with cold PBS then lysed in RIPA lysis buffer containing protease and phosphatase inhibitors. Protein concentration of the cell lysates was measured using the Bio-Rad protein Assay kit (Bio-Rad, 7 Philadelphia, Pa., USA). After equalizing the protein concentrations of the samples, 5× laemmli buffer was added and the samples were boiled at 100° C. for 5 min. Equal amounts of protein samples (30 μg) were subjected to SDS-PAGE of a 10% gel. The separated proteins were transferred to a nitrocellulose (NC) membrane, which was then exposed to 5% non-fat dried milk in TBS containing 0.1% Tween (0.1% TBST) for 1 h at room temperature, followed by overnight incubation at 4° C. with primary antibodies to GAPDH, phospho-AKT, AKT, phospho-ROS1, ROS1, phospho-ERK, ERK, phospho-STAT3, STAT3. After washing three times by TBST (5 mins/time), the membranes were incubated for 1 h at room temperature with the secondary fluorescent antibodies (1:10000 dilutions) to rabbit or mouse. The signal intensity of the membranes was detected by an LI-COR Odessy scanner (Belfast, Me., USA).

H2228 cells [3] = experiment: Colony formation assay in H2228 cells; format: cell-based; conditions: 14 days
Experimental: H2228 cells were seeded to six-well plate (1000/well). Then cells were exposed to various doses of the compound of Formula (Ic), namely 1.25, 2.5 and 5 μM. After 14 days, colonies were fixed with 4% paraformaldehyde for 15 min and stained with crystal violet for 10-15 min. Finally, the staining solution was slowly washed off with water and the cells were air dried. Clones with more than 50 cells were counted under a microscope.

H2228 NSCLC cells = experiment: MTT assay, cell viability of H2228 cells; format: cell-based; conditions: Homo sapiens, NCI-H2228, 72 h treatment
Experimental: as §3, §4

H2228 cells [4] = experiment: Apoptosis assay (Annexin-V FITC/PI flow cytometry) in H2228 cells; format: cell-based; conditions: 48 h
Experimental: H2228 cells (1.0×10^5 cells/well) were allowed to attach in a 6-well plate for 24 h. The cells were treated with various concentrations of the compound of Formula (Ic), namely 1.25, 2.5 and 5 μM, for 48 h. Subsequently, cells were trypsinized, washed with PBS twice, then the cells were resuspended in a total volume of 100 μL binding buffer with 2 μL Annexin-V FITC and 5 μL propidine iodide (PI). Finally, the cells were gently mixed and incubated in the dark at room temperature for 15 min, before further addition of 400 μL of 1× Annexin-binding buffer, the number of apoptotic cells was quantified using a Flow Cytometer (BD Biosciences, San Jose, Calif., USA) within 1 h. Data were analyzed by Flow Jo software.

ROS1-positive NSCLC = conditions: NSCLC patients harboring ROS1 rearrangements; cited from earlier work

| Structure (SMILES) | IC50 (BEAS-2B cells [1]) [µM] | IC50 (BEAS-2B cells [2]) [µM] | fold cytotoxicity towards cancer cells than normal healthy cells (HCC78 NSCLC cells; HCC78 versus BEAS-2B, 72 h) [fold] | IC50 (HCC78 NSCLC cells; Homo sapiens, HCC78 cells, MTT, 72 h treatment) [µM] | ALK phosphorylation and downstream PI3K/AKT, MEK/ERK and JAK/STAT3 signaling pathways (ALK fusion kinase) | cell morphology indicating apoptosis (fluorescence images) (HCC78 cells; HCC78 cells, 2.5 μM) | induction of apoptosis (flow cytometry) (HCC78 cells; HCC78 cells, 1.25, 2.5, 5 μM) | ROS1 phosphorylation and downstream signaling involving Erk1/2, STAT3 and AKT (ROS1 fusion kinase) | formation of H2228 cell colonies (H2228 cells [3]; 5 μM) | formation of H2228 cell colonies (H2228 cells [3]; 1.25, 2.5, 5 μM) | IC50 (H2228 NSCLC cells) [µM] | induction of apoptosis (flow cytometry) (H2228 cells [4]; H2228 cells, 1.25, 2.5, 5 μM) | level of cell apoptosis compared with control group (H2228 cells [4]; H2228 cells, concentration of at least 5 μM) | median progression-free survival (ROS1-positive NSCLC) [months] | objective response rate (ROS1-positive NSCLC) [%] |
| --- | --- | --- | --- | --- | --- | --- | --- | --- | --- | --- | --- | --- | --- | --- | --- |
| COc1ccc(CNC(=O)Cn2nc(-c3ccccc3)c3cnc4ccccc4c32)cc1 [compound of Formula (Ic)] | 6.08 | 6.51 ± 1.08 | 3.75 | 1.62 | significant suppression | detach from the surface and are small | induction of apoptosis on HCC78 cells in a concentration dependent manner | dose-dependent decrease | no visible colonies | inhibited the formation of H2228 cell colonies in a dose-dependent manner | 2.71 ± 0.92 | induction of apoptosis of H2228 cells in a concentration-dependent manner | significant levels of cell apoptosis | – | – |
| C[C@@H](Oc1cc(-c2cnn(C3CCNCC3)c2)cnc1N)c1c(Cl)ccc(F)c1Cl [crizotinib] | – | – | – | – | – | – | – | – | – | – | – | – | – | 19.2 | 72 |
